Source: patent US4868154A, “Stimulation of tear secretion with melanocyte stimulating hormones” (Eye Research Institute of Retina Foundation, priority 1986, dated 1989)
Where no end group is shown, it is not given here.

Legend:
[1] = system: rabbits with dry eyes; assay: Tear film osmolality after topical drops in dry eye rabbits; format: in vivo; settings: dry eye rabbit, topical 10 μl drops, 10^-5 M, 10^-4 M and 10^-3 M in buffer, FIGS. 2 to 4; for tear film osmolality compared with buffer alone: tear samples at 6 and 16 minutes
Procedure: In vivo examples in accordance with the invention were conducted on rabbits with dry eyes. The dry eye disorder is created by surgically closing the duct that carries fluid from the main lacrimal gland to the tear film and surgically removing the nictitans and harderian glands. This leaves intact only the accessory glands that lie on the surface of the eye. These rabbits develop increased tear film osmolality soon after the operation, a finding that is understood to be due to decreased tear production, and that is characteristic of dry eye. It is recognized that results of opthalmologic tests using rabbits has close correlation with humans and therefore the results carry over to humans
The effect on tear film osmolality of topically applied isotonic buffer solution with and without melanocyte stimulating hormones which activate the melanotropin receptors was studied in the dry eye rabbit. All test drops were ten microliters (μl) in volume. Tear samples were taken with a micropipette system, in the manner described in the article entitled "Osmolarity of Tear Microvolumes in Keratoconjunctivitis Sicca", by Gilbard et al, Arch Ophthalmol 96:677, 1978. Osmolarity was measured by freezing-point depression.
The following protocol was used to test the effects of the topically applied melanotropins. At zero time a tear sample was taken for measurement of osmolality. At one minute the test drop was instilled. At six and at sixteen minutes, tear samples were taken for osmolality measurements. Five minutes after the sixteen minute sample, the above sequence was repeated several times to test additional drops.
The following drops were instilled in the test eye and after each such instillation, test samples were taken as stated: (1) buffer solution, (2) buffer solution containing a melanocyte stimulating hormone at a low dose, (3) buffer solution, (4) buffer solution containing a melanocyte stimulating hormone at a moderate dose, (5) buffer solution, (6) buffer solution containing a melanocyte stimulating hormone at a higher dose. The melanocyte stimulating hormone may be obtained from Peninsula Laboratories,Inc., Belmont California. The results are shown in FIGS. 1 through 4 A, B, and C, where FIGS. 1 through 4 each represent results obtained from the same rabbit.

[2] = system: tissue pieces in vitro; settings: Jahn et al Eur. J. Biochem 126: 623, 1982; cited from earlier work
[3] = system: lacrimal gland; settings: topical administration; Gilbard and Dartt, patent pending; cited from earlier work
[4] = system: lacrimal gland cells; settings: Dartt et al, Am. J. Physio. 247: G502, 1984; cited from earlier work

Substance | dose dependence of the decrease in tear film osmolality [1] | tear film osmolality compared with buffer alone [1] | protein secretion [2] | lacrimal gland fluid secretion [3] | cyclic AMP levels in lacrimal gland cells [4]
beta-melanocyte stimulating hormone [beta-MSH] | dose-dependent decrease in tear film osmolality | lowers the tear film osmolality more effectively than buffer alone | – | – | –
gamma-melanocyte stimulating hormone [gamma-MSH] | dose-dependent decrease in tear film osmolality | lowers the tear film osmolality more effectively than buffer alone | – | – | –
adrenocorticotropic hormone (SYSMEHFRWGKPVGKKRRPVKVYPNGAEDESAEAFPLEF; Corticotropin; UniProt P01189 138-176, looked up) [hormone cited from literature as stimulating protein secretion in vitro] | – | – | stimulate protein secretion | – | –
vasoactive intestinal peptide (HSDAVFTDNYTRLRKQMAVKKYLNSILN; ends and bridges not checked; UniProt P01282 125-152, looked up) [peptide cited from prior work as stimulating lacrimal gland fluid secretion] | – | – | – | stimulates lacrimal gland fluid secretion | increase cyclic AMP levels
